Reference: patent US5322840A, “Treatment of hyperlipemia and hypertriglyceridemia” (Centre d'Etudes Experimentales et Cliniques de …, priority 1990, dated 1994)
“Also recorded” adds a separate entry of the source. One block for each molecule: values may come before it.

Experiments:
[1] = tested on: HMG CoA reductase (β-hydroxy-β-methylglutaryl CoA reductase); test: In vitro study on microsomal fraction of liver: HMG CoA reductase activity; type: biochemical
[2] = tested on: normal animals; test: Administration in normal animals, hypolipemia (conclusion, route not stated); type: in vivo
Protocol: (§1) In normal animals, the fatty acids, triglycerides and cholesterol are determined by automated enzymatic reactions.

[3] = tested on: ACAT (cholesterol-O-acyl transferase); test: In vitro study on microsomal fraction of liver: ACAT activity; type: biochemical; conditions: 'the same' = no action
[4] = tested on: normal rats; test: Normal rats, intravenous administration, plasma lipids; type: in vivo, rat
Protocol: as §1
The animals are distributed into six lots of five animals each:
a control lot receiving the placebo (0.9% isotonic saline solution),
five treated lots receiving 0.03, 0.1, 0.3, 1 and 3 mg/kg of Agr 529 respectively by intravenous injection.
The animals are sacrificed two hours after the injection of the product.

[5] = tested on: normal rats; test: Normal rats, intraperitoneal administration, plasma lipids; type: in vivo, rat
Protocol: as §1
The animals are distributed in five lots of five animals each:
[…] receiving 0.1, 0.3, and 3 mg/kg.
The animals are sacrificed two hours after the administration of the Agr 529.

[6] = tested on: hypertriglyceridemia provoked by Triton WR1339 in Fauve de Bourgogne rabbits; test: Triton-provoked hypertriglyceridemia in rabbits, Agr 529 iv; type: in vivo, rabbit
Protocol: Fauve de Bourgogne rabbits of an average weight of 2 kg (EGAV).
(§2) The hypertriglyceridemia is obtained by the intravenous (iv) injection of Triton WR1339 (tyloxapol) in a dose of 600 mg/kg, obtained from the Sigma Chemical Company, N. T 8761 (marginal vein of the ear of the rabbit, jugular vein or vein of the penis of the rat, under slight ether anesthesia, the pentobarbital which attaches itself on the A1 receptors being capable of interacting with the molecules used (Lhose et al., 1985). All the animals used had fasted for 15 hours. The blood was collected over heparin, centrifuged for 20 minutes (3000 rpm at 4° C.). In the serum collected, the TG (triglycerides) are determined in accordance with the GPO-PAP method Boeringher Peridochrom® Kit, item 701-882.
(§3) The animals are divided into two lots:
a control lot (6 animals) receiving isotonic saline solution iv in a volume of 0.5 ml/kg two hours before the injection of Triton and the same dose of saline solution as previously.
a treated lot (7 animals) receiving 2 mg/kg of Agr 529 iv in a volume of 0.5 ml/kg two hours before the injection of Triton and a new dose of Agr 529 (2 mg/kg).
A sampling of arterial blood, two hours after the injection of the Triton, permits determination of the triglycerides.

[7] = tested on: hypertriglyceridemia provoked by Triton WR1339 in Sprague-Dawley rats; test: Triton-provoked hypertriglyceridemia in rats, intraperitoneal route; type: in vivo, rat
Protocol: (§4) Sprague-Dawley male white rats, Iffa Credo, of an average weight of 260-270 g.
as §2, §3
a control lot (4 animals) receiving isotonic saline solution in a volume of 0.2 ml/100 g of rat by intraperitoneal injection (ip), 20 minutes before the injection of the Triton (iv).
a treated lot (5 animals) receiving 2 mg/kg of Agr 529 ip, under the same conditions as the controls.
Two hours later, the animals are sacrificed by decapitation; the blood is collected by the method previously described, for determination of the triglycerides.

[8] = tested on: normal rats; test: Kinetic study of Agr 529 at 3 mg/kg iv in normal rats; type: in vivo, rat
Protocol: as §1
c) Kinetic study of Agr 529 in an amount of 3 mg/kg iv (FIG. V, VI, VII, VIII).

[9] = tested on: hypertriglyceridemia provoked by Triton WR1339 in Sprague-Dawley rats; test: Triton-provoked hypertriglyceridemia in rats, per os; type: in vivo, rat; conditions: for Triglycerides: Triton controls 7.53 ± 0.49; for triglycerides plasma concentrations: per os in doses of 3 and 30 mg/kg; for triglycerides plasma concentrations / action on the increase in the circulating triglycerides: Triton model; for action on the increase in the circulating triglycerides: per os
Protocol: as §4, §2
The animals are divided into six lots:
one control-control lot receiving per os isotonic saline solution in a volume of 0.2 ml/100 g of rat 30 minutes before the iv injection of isotonic saline solution.
a Triton control lot receiving per os isotonic saline solution 30 minutes before the iv injection of Triton.
an Agr 529 lot (3 mg/kg in a volume of 0.2 ml/100 g of rat), 30 minutes before the iv injection of Triton.
one lot receiving, under the same conditions, 30 mg/kg of Agr 529 per os.
two lots receiving, under the same conditions as previously, 3 and 30 mg/kg of Agr 540 per os.

[10] = report submitted on Agr 529; cited from earlier work
[11] = rats, 30 mg/kg P.O. + Triton 600 mg/kg iv

action on the activity of the HMG CoA reductase [1]: no action | action on the activity of ACAT [3]: The same is true | hyperglycemia ([4]; 3 mg/kg iv): hyperglycemia is furthermore noted | hyperglycemia ([5]; 0.3 mg/kg intraperitoneal): hyperglycemia is no longer found | stability towards adenosine deaminase (inferred from long duration of action) ([8]; inferred in vivo): not destroyed by the adenosine deaminase
Structure (SMILES): NC(=O)CCCNc1ncnc2c1ncn2[C@@H]1O[C@H](CO)[C@@H](O)[C@H]1O [Agr 529, (N6-3-carboxamido-propyl) adenosine]
hypolipemia (reduction of fatty acids, phospholipides, triglycerides and cholesterol) [2]: causes a hypolipemia | concentration of plasma triglycerides, total cholesterol, fatty acids and phospholipides ([4]; 3 mg/kg iv, two hours after the injection, 3 mg/kg): significant decrease | minimal effective dose ([4]; Rattus norvegicus, 2 h, iv, doses 0.03-3 mg/kg, two hours after injection, read-out: dose from which the hypolipemizing effect appears): ≥ 0.1 mg/kg | plasma concentrations of fatty acids, phospholipides, triglycerides and total cholesterol, dose dependence ([4]; intravenous administration): decrease, as a function of the doses | cholesterol and triglyceride concentrations of the high density lipoproteins (HDL) ([4]; route not specified): No action | minimal effective dose ([5]; Rattus norvegicus, ip, 2 h, intraperitoneal, two hours after administration, read-out: dose from which the hypolipemizing effect starts to be significant): ≥ 0.3 mg/kg | hypolipemia, dose dependence ([5]; intraperitoneal administration): hypolipemia as a function of the doses | plasma concentration of the circulating triglycerides ([6]; 2 mg/kg intravenously in rabbits, Triton WR 1339 model): normalized the plasma concentration of the circulating triglycerides | Triglycerides time = 2 ([6]; rabbits n = 7, 2 hours after Agr 529 2 mg/kg iv, before Triton): 3.19 ± 0.38 mmol/L | Triglycerides time = 4 ([6]; rabbits n = 7, 2 hours after second Agr 529 2 mg/kg iv + Triton 600 mg/kg iv): 4.65 ± 0.44 mmol/L | increase of the triglycerides caused by Triton ([6]; rabbits, Agr 529 2 mg/kg iv, control increase 196.5%): 45% | Triglycerides time = 0 ([6]; rabbits, test lot n = 7, time = 0, before first injection of Agr 529 2 mg/kg iv): 1.95 ± 0.34 mmol/L | concentration of triglycerides less than the Triton controls ([6]; rabbits, time 4, Agr 529 2 mg/kg iv): 150% | plasma concentration of the circulating triglycerides ([7]; 2 mg/kg intraperitoneally, Triton WR 1339 model): normalized the plasma concentration of the circulating triglycerides | Triglycerides ([7]; rats n = 5, Agr 529 2 mg/kg ip + Triton 600 mg/kg iv, two hours later, controls 6.32 ± 0.92): 2.90 ± 0.26 mmols/liter | decrease in the quantity of triglycerides in circulation ([7]; rats, Agr 529 2 mg/kg ip, Triton model, significant (**)): 54% | time after injection at which the hypolipemizing effect starts to appear [8]: 30 min | time of maximum hypolipemizing effect [8]: maximum at the end of two hours; also recorded: maximum effect at two hours | concentrations of fatty acids, triglycerides, total cholesterol and phospholipides ([8]; kinetic study): significant decrease | Triglycerides ([9]; rats, 3 mg/kg P.O. + Triton 600 mg/kg iv): 4.87 ± 0.69 mmols/liter | Triglycerides [9, 11]: 4.64 ± 0.74 mmols/liter | triglycerides plasma concentrations ([9]; rats): return the triglycerides plasma concentrations to normal | action on the increase in the circulating triglycerides ([9]; rats): significantly oppose the increase in the circulating triglycerides

Structure (SMILES): CCC(=O)OC[C@H]1O[C@@H](n2cnc3c(NCCCC(N)=O)ncnc32)[C@H](OC(=O)CC)[C@@H]1OC(=O)CC [Agr 540, 6-(3-carboxamido-propylamino)-9-(2', 3', 5', tripropionyl-β-D-ribosyl) purine]
hypolipemia (reduction of fatty acids, phospholipides, triglycerides and cholesterol) [2]: causes a hypolipemia | absorption per os relative to Agr 529 [10]: better absorbed per os | Triglycerides ([9]; rats n = 6, first Agr 540 column, head prints 30 mg/kg P.O. + Triton 600 mg/kg iv): 5.65 ± 0.46 mmols/liter | Triglycerides [9, 11]: 3.67 ± 0.59 mmols/liter | triglycerides plasma concentrations ([9]; rats): return the triglycerides plasma concentrations to normal | action on the increase in the circulating triglycerides ([9]; rats): significantly oppose the increase in the circulating triglycerides
